Source: ChEMBL document CHEMBL3085775, “Design, diversity-oriented synthesis and structure activity relationship studies of quinolinyl heterocycles as antimycobacterial agents” (Eur J Med Chem, 2013)
Converted amounts (≈) assume the structure as drawn.

Columns and labels:
A549 = test: Cytotoxicity against human A549 cells after 48 hrs by MTT assay; assay type: cell-based; settings: A549, 48 h
[1] = tested on: Mycolicibacterium smegmatis; test: Antimycobacterial activity against Mycobacterium smegmatis MC2 155 ATCC 14468 after 32 hrs by turbidimetry; assay type: functional; settings: MC2 155 ATCC 14468, 32 h

| Compound | IC50 (A549) | MIC90 [1] [µg/mL] | MIC50 [1] [µg/mL] |
| --- | --- | --- | --- |
| CC(=O)N1N=C(c2cc3ccccc3nc2C)CC1c1ccc([N+](=O)[O-])cc1 (centres undefined) | > 200 µg/mL | 50.7 (≈ 135 µM) | – |
| Cc1nc2ccccc2cc1-c1nnc(-c2ccccc2C(=O)O)o1 | 106 µg/mL | 43.3 (≈ 131 µM) | – |
| CO[C@H]1/C=C/O[C@@]2(C)Oc3c(C)c(O)c4c(O)c(c(/C=N/N5CCN(C)CC5)c(O)c4c3C2=O)NC(=O)/C(C)=C\C=C\[C@H](C)[C@H](O)[C@@H](C)[C@@H](O)[C@@H](C)[C@H](OC(C)=O)[C@@H]1C [RIFAMPIN] | – | 2.15 (≈ 2.61 µM) | 2.08 (≈ 2.53 µM) |
| Cc1nc2ccccc2cc1-c1cn2ccccc2n1 | 118 µM | – | > 50 |
| COc1ccc(OC)c(-c2nnc(-c3cc4ccccc4nc3C)o2)c1 | 134 µg/mL | 29.2 (≈ 84 µM) | – |
| Cc1nc2ccccc2cc1-c1nnc(-c2cccs2)o1 | 99.4 µg/mL | 39.7 (≈ 135 µM) | – |
| Cc1nc2ccccc2cc1-c1nnc(-c2cccnc2)o1 | 139 µg/mL | 22.7 (≈ 78.8 µM) | – |
| Cc1nc2ccccc2cc1-c1cc[nH]n1 | 138 µM | – | 14.7 (≈ 70.1 µM) |
| Cc1nc2ccccc2cc1-c1nnc(-c2ccc(OC(F)(F)F)cc2)o1 | 91.1 µg/mL | > 70 | – |
| Cc1ccc(-c2nnc(-c3cc4ccccc4nc3C)o2)cc1 | 175 µg/mL | 35 (≈ 116 µM) | – |
| COc1ccc(C2CC(c3cc4ccccc4nc3C)=NN2c2ccccc2)c(OC)c1OC (centres undefined) | 143 µg/mL | 43.5 (≈ 96 µM) | – |
| Cc1nc2ccccc2cc1-c1nnc(C(C)c2ccccc2)o1 (centres undefined) | 165 µg/mL | 35.9 (≈ 114 µM) | – |
| CC(=O)N1N=C(c2cc3ccccc3nc2C)CC1c1ccc(C#N)cc1 (centres undefined) | > 200 µg/mL | > 70 | – |
| Cc1nc2ccccc2cc1-c1nnc(CCc2ccccc2)o1 | 145 µM | – | 35 (≈ 111 µM) |
| Cc1nc2ccccc2cc1-c1nnc(-c2ccc(F)c(C(F)(F)F)c2)o1 | 93.3 µg/mL | 47.5 (≈ 127 µM) | – |
| CC(=O)N1N=C(c2cc3ccccc3nc2C)CC1c1ccc(N(C)C)cc1 (centres undefined) | 110 µg/mL | > 70 | – |
| COc1ccc(C2CC(c3cc4ccccc4nc3C)=NN2C(C)=O)cc1 (centres undefined) | 116 µg/mL | > 70 | – |
| Cc1nc2ccccc2cc1-c1nnc(-c2coc3ccccc3c2=O)o1 | 111 µg/mL | 16.8 (≈ 47.4 µM) | – |
| CC(=O)N1N=C(c2cc3ccccc3nc2C)CC1c1cccc(Oc2nc(Cl)c(Cl)cc2Cl)c1 (centres undefined) | 72.7 µg/mL | 64.9 (≈ 123 µM) | – |
| Cc1nc2ccccc2cc1C(=O)n1nc(C)c(C2CCCCO2)c1C (centres undefined) | 143 µg/mL | > 70 | – |
| COc1ccc(OC)c(C2CC(c3cc4ccccc4nc3C)=NN2C(C)=O)c1 (centres undefined) | 111 µg/mL | > 70 | – |

| Compound | IC50 (A549) | MIC90 [1] [µg/mL] | MIC50 [1] [µg/mL] |
| --- | --- | --- | --- |
| Cc1nc2ccccc2cc1-c1nnc(-c2cn(-c3ccccc3)nc2-c2ccccc2)o1 | > 200 µg/mL | > 70 | – |
| CC(=O)n1ccc(-c2cc3ccccc3nc2C)n1 | 87 µg/mL | 17.3 (≈ 69 µM) | – |
| CC(=O)N1N=C(c2cc3ccccc3nc2C)CC1c1ccc(Oc2nc(Cl)c(Cl)cc2Cl)cc1 (centres undefined) | > 200 µg/mL | > 70 | – |
| CC(=O)N1N=C(c2cc3c(Cl)cccc3nc2C)CC1c1ccc(C)cc1 (centres undefined) | 166 µg/mL | > 70 | – |
| Cc1nc2ccccc2cc1-c1nnc(-c2cccc(Oc3ccccc3)c2)o1 | 146 µg/mL | > 70 | – |
| COc1cc(-c2nnc(-c3cc4ccccc4nc3C)o2)cc(OC)c1OC | 113 µg/mL | 61.9 (≈ 164 µM) | – |
| COc1cc(OC)c(C2CC(c3cc4ccccc4nc3C)=NN2C(C)=O)c(OC)c1 (centres undefined) | 171 µM | – | 57.9 (≈ 138 µM) |
| CCCCCc1nnc(-c2cc3ccccc3nc2C)o1 | 72.2 µg/mL | > 70 | – |
| CC(=O)N1N=C(c2cc3ccccc3nc2C)CC1/C=C/c1ccccc1 (centres undefined) | 93.3 µg/mL | > 70 | – |
| Cc1nc2ccccc2cc1C1=NN(c2ccccc2)C(c2ccc(Br)cc2)C1 (centres undefined) | 93 µg/mL | > 70 | – |
| Cc1nc2ccccc2cc1-c1nnc(-c2ccc(C(C)C)cc2)o1 | 103 µg/mL | 41 (≈ 125 µM) | – |
| Cc1nc2ccccc2cc1C(=O)NN | 96.4 µM | – | > 50 |
| CCOc1c(F)c(F)c(C2CC(c3cc4ccccc4nc3C)=NN2C(C)=O)c(F)c1F (centres undefined) | 115 µg/mL | > 70 | – |
| COc1cc(C2CC(c3cc4ccccc4nc3C)=NN2C(C)=O)cc(OC)c1OC (centres undefined) | > 200 µg/mL | 52.1 (≈ 124 µM) | – |
| COc1ccc(C2CC(c3cc4ccccc4nc3C)=NN2C(C)=O)c(OC)c1OC (centres undefined) | 86.5 µg/mL | 46.2 (≈ 110 µM) | – |
| Cc1nc2ccccc2cc1-c1ccnc(N)n1 | 94.2 µM | – | > 50 |
| Cc1cc(C)n(C(=O)c2cc3ccccc3nc2C)n1 | 97.9 µg/mL | 24.1 (≈ 90.9 µM) | – |
| COc1ccc(C2CC(c3cc4ccccc4nc3C)=NN2C(C)=O)cc1OC (centres undefined) | > 200 µg/mL | > 70 | – |
| NNC(=O)c1ccncc1 [ISONIAZID] | – | 11.8 (≈ 85.9 µM) | 12.1 (≈ 88 µM) |
| Cc1nc2ccccc2cc1-c1csc(N)n1 | > 200 µM | – | > 50 |
| COc1cc(C2CC(c3cc4ccccc4nc3C)=NN2c2ccccc2)cc(OC)c1OC (centres undefined) | > 200 µg/mL | > 70 | – |
